US20220257546A1, “KETONE BODIES ENCLOSED IN MICROBEADS” (Ketoswiss AG, priority 2019, published 2022)

What was measured:
[1] = Glucose blood plasma levels, Example 3 trial; assay type: in vivo, human; conditions: about 18 g βHB formulation; snack provided at 6 h; n=10
Procedure: Participants arrived at the laboratory between 7.30 and 9.00 after an overnight fast, and provided a urine sample for hydration assessment (PEN Refractometer, Atago Instruments). Next, a fasting blood sample was taken via a cannula inserted into a superficial forearm vein for serial blood sampling. After providing a “fasting” blood sample, participants ingested a 250 mL lemon flavored non-caloric water drink wherein the 18 g dose of a microbead comprising the βHB formulation was suspended. After supplementation, baseline determinations tests were repeated for comparison between the pre- and post-supplementation periods. Every 30 min for three hours after ingestion, a blood sample was taken. After 3 hours, a blood sample was taken at 1-hour intervals. After 8 hours, a blood sample was taken at 2-hour intervals. Participants remained in the lab at quiet rest throughout this time period and were permitted to use entertainment headsets and the digital library and were allowed make short walks outside. Participants were offered some small snack 6 hours after consumption of the prototype drink which they could choose from low caloric yoghurts, muesli bars and low caloric fruit juices. […] The blood samples were, at least for the determination of AcAc levels, directly analyzed within 2 hours (or otherwise stored at −80° C. before analysis). […]

[2] = in vivo
Source text: (§1) The participants went to the visits A, B and C in a randomized order.
(§2) The experimental setup allowed to directly determine the physiological effects of ingesting βHB enclosed in microbeads compared to standard non-enclosed βHB. To distinguish the effects of βHB from effects of the enclosing material, i.e. the pea protein, participants have also ingested empty microbeads on one trial day.

[3] = βHB blood plasma concentration after 18 g βHB in microbeads or free (Example 3 cross-over trial); assay type: in vivo, human; conditions: n=10
Source text: A dose of βHB contained in microbeads was 20 g of microbeads containing a mix of 50% R-3-hydroxybutyrate mineral salts (Na/Ca/K/Mg Blend 1:1:1:2) and 50% R-3-hydroxybutyric acid (βHB formulation). In particular, said βHB formulation was enriched in pockets dispersed throughout a polymerized yellow pea protein matrix of the microbead particles and constituted approximately 89 to 90% of the weight of the microbead. Thus, the βHB formulation comprised in said dose was about 18 g, in particular about 17.8 g.
The dose of non-enclosed (free) βHB was also about 18 g, in particular about 17.8 g, and the dose of empty microbeads was about 2 g, in particular about 2.2 g. Thus, the free βHB and empty microbeads were direct controls of the composition comprising βHB contained in microbeads.
For administration, one dose was suspended in 250 ml of lemon-flavored non-caloric water.
Participants arrived at the laboratory between 7.30 and 9.00 after an overnight fast, and provided a urine sample for hydration assessment (PEN Refractometer, Atago Instruments). Next, a fasting blood sample was taken via a cannula inserted into a superficial forearm vein for serial blood sampling. After providing a “fasting” blood sample, participants ingested a 250 mL lemon flavored non-caloric water drink wherein the 18 g dose of a microbead comprising the βHB formulation was suspended. After supplementation, baseline determinations tests were repeated for comparison between the pre- and post-supplementation periods. Every 30 min for three hours after ingestion, a blood sample was taken. After 3 hours, a blood sample was taken at 1-hour intervals. After 8 hours, a blood sample was taken at 2-hour intervals. Participants remained in the lab at quiet rest throughout this time period and were permitted to use entertainment headsets and the digital library and were allowed make short walks outside. […] The blood samples were, at least for the determination of AcAc levels, directly analyzed within 2 hours (or otherwise stored at −80° C. before analysis). […]

[4] = Tolerability of βHB, Example 3 trial; conditions: about 18 g dose
Source text: as §1, §2

[5] = about 18 g βHB formulation oral

C[C@@H](O)CC(=O)O [free βHB, R-3-hydroxybutyric acid]
blood glucose levels upon ingestion [1]: not altered for at least 4 hours
tolerability of the dose [2]: poorly tolerated
average plasma βHB concentration at peak ([3]; about 18 g βHB formulation oral in 250 ml lemon-flavored water, first measurement time-point): 1.5 mM
time within which plasma βHB concentration dropped to baseline levels [3, 5]: ≤ 2 h
time-point of peak average plasma βHB concentration [3, 5]: 0.5 h
participants expressing mild nausea ([4]; of 10 participants): 4 participants
participants expressing severe discomfort and sickness ([4]; of 10 participants): 3 participants
participants reporting gastrointestinal distress (stomach cramping, upset, nausea, bloating, diarrhea) ([4]; within the first hour upon ingestion): 7 of 10 participants
